Experimental data from patent US20260234129A1, “NOVEL IMIDAZOLE DERIVATIVE AND USE THEREOF” (PELEMED CO., LTD., priority 2023, published 2026).

Legend:
Assay in all cases: scanMax kinase panel (Eurofins)
Format in all cases: binding
[1] = target: T1, ABL1(H396P)-phosphorylated (Homo sapiens, UniProt P00519, H396P); conditions: read-out: % control
T1 construct: purchased Eurofins
Procedure: (§1) The following assay method was performed to evaluate the inhibitory activities of a compound according to the present invention with respect to various enzymes. […] The compound was applied to the enzyme at a concentration of 1 μM, dissolved in DMSO, and the % control was determined according to Equation 1 below.
(§2) Here, the positive control refers to a compound corresponding to 0% control, and the negative control refers to a compound corresponding to 100% control.

[2] = target: T2, ABL1(M351T)-phosphorylated (Homo sapiens, UniProt P00519, M351T); conditions: read-out: % control
T2 construct: purchased Eurofins
Procedure: as §1, §2

[3] = target: T3, ABL1(Q252H)-nonphosphorylated (Homo sapiens, UniProt P00519, Q252H); conditions: read-out: % control
T3 construct: purchased Eurofins
Procedure: as §1, §2

[4] = target: T4, ABL1(T315I)-nonphosphorylated (Homo sapiens, UniProt P00519, T315I); conditions: read-out: % control
T4 construct: purchased Eurofins
Procedure: as §1, §2

[5] = target: T5, ABL1-nonphosphorylated (Homo sapiens, UniProt P00519); conditions: read-out: % control
T5 construct: purchased Eurofins
Procedure: as §1, §2

[6] = target: T6, AURKA (Homo sapiens, UniProt O14965); conditions: read-out: % control
T6 construct: purchased Eurofins
Procedure: as §1, §2

[7] = target: T7, AURKB (Homo sapiens, UniProt Q96GD4); conditions: read-out: % control
T7 construct: purchased Eurofins
T7 sequence (Q96GD4 whole entry): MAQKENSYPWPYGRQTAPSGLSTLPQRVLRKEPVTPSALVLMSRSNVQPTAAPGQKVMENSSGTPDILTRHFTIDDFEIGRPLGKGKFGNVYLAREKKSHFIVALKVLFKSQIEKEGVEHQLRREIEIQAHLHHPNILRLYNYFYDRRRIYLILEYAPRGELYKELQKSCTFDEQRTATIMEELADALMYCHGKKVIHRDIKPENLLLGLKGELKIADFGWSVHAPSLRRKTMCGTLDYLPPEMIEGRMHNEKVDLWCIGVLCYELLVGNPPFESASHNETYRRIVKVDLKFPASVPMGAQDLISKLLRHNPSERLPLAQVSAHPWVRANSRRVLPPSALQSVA
Procedure: as §1, §2

[8] = target: T8, AXL (Homo sapiens, UniProt P30530); conditions: read-out: % control
T8 construct: purchased Eurofins
Procedure: as §1, §2

[9] = target: T9, CDK2 (Homo sapiens, UniProt P24941); conditions: CDK2, 1 μM; read-out: % control
T9 construct: purchased Eurofins
Procedure: as §1, §2

[10] = target: T10, CDK4-cyclinD3 (Homo sapiens, UniProt P11802); conditions: CDK4-cyclinD3, 1 μM; read-out: % control
T10 construct: purchased Eurofins scanMax® kinase panel
T10 sequence (P11802 whole entry): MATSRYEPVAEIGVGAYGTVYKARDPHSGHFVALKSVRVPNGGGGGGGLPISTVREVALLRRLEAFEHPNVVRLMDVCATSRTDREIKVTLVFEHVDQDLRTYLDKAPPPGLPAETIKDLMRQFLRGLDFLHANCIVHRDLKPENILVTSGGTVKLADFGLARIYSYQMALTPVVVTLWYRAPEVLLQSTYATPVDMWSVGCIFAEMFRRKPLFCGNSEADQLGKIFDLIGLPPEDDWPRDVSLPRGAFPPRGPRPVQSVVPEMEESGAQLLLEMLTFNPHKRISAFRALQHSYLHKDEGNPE
T10 sequence (P30281 whole entry partner): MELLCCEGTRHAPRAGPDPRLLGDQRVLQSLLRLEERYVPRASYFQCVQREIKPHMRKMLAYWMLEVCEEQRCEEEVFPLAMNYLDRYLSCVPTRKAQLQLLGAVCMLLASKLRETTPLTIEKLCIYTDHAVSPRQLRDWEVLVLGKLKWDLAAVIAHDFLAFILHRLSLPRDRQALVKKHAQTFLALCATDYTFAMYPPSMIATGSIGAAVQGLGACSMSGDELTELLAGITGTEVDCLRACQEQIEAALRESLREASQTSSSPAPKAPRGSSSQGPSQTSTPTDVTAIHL
Procedure: as §1, §2

[11] = target: T11, CDK5 (Homo sapiens, UniProt Q00535); conditions: CDK5, 1 μM; read-out: % control
T11 construct: purchased Eurofins scanMax® kinase panel
Procedure: as §1, §2

[12] = target: T12, CDK7 (Homo sapiens, UniProt P50613); conditions: CDK7, 1 μM; read-out: % control
T12 construct: purchased Eurofins scanMax® kinase panel
T12 sequence (P50613 whole entry): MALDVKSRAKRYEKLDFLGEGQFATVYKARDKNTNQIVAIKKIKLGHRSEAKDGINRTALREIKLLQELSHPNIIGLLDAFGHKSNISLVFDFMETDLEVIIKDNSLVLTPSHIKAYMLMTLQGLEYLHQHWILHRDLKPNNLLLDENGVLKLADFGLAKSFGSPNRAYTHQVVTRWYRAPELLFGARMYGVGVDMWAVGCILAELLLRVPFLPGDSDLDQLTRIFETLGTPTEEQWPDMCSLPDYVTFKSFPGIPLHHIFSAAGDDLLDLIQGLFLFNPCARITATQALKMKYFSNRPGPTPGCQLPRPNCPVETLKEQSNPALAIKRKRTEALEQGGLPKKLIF
Procedure: as §1, §2

[13] = target: T13, DYRKIA (Homo sapiens, UniProt Q13627); conditions: read-out: % control
T13 construct: purchased Eurofins scanMax® kinase panel
Procedure: as §1, §2

[14] = target: T14, HASPIN (Homo sapiens, UniProt Q8TF76); conditions: read-out: % control
T14 construct: purchased Eurofins scanMax® kinase panel
Procedure: as §1, §2

[15] = target: T15, HIPK1 (Homo sapiens, UniProt Q86Z02); conditions: HIPK1, 1 μM; read-out: % control
T15 construct: purchased Eurofins scanMax® kinase panel
Procedure: as §1, §2

[16] = target: T16, HIPK2 (Homo sapiens, UniProt Q9H2X6); conditions: HIPK2, 1 μM; read-out: % control
T16 construct: purchased Eurofins scanMax® kinase panel
Procedure: as §1, §2

[17] = target: T17, JAK1(JH2domain-pseudokinase) (Homo sapiens, UniProt P23458); conditions: read-out: % control
T17 construct: JAK1(JH2domain-pseudokinase); purchased Eurofins
T17 sequence (P23458 583-855 limits assumed): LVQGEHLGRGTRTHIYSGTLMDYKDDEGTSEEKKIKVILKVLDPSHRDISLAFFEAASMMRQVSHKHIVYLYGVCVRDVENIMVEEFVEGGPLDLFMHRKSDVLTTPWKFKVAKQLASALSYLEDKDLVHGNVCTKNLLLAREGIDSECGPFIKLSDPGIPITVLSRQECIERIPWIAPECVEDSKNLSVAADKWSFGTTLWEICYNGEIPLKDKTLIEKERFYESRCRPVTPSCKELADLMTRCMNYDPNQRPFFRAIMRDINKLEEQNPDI
Procedure: as §1, §2

[18] = target: T18, JAK2(JH1domain-catalytic) (Homo sapiens, UniProt O60674); conditions: read-out: % control
T18 construct: JAK2(JH1domain-catalytic); purchased Eurofins
Procedure: as §1, §2

[19] = target: T19, KIT (Homo sapiens, UniProt P10721); conditions: read-out: % control
T19 construct: purchased Eurofins
T19 sequence (P10721 26-976): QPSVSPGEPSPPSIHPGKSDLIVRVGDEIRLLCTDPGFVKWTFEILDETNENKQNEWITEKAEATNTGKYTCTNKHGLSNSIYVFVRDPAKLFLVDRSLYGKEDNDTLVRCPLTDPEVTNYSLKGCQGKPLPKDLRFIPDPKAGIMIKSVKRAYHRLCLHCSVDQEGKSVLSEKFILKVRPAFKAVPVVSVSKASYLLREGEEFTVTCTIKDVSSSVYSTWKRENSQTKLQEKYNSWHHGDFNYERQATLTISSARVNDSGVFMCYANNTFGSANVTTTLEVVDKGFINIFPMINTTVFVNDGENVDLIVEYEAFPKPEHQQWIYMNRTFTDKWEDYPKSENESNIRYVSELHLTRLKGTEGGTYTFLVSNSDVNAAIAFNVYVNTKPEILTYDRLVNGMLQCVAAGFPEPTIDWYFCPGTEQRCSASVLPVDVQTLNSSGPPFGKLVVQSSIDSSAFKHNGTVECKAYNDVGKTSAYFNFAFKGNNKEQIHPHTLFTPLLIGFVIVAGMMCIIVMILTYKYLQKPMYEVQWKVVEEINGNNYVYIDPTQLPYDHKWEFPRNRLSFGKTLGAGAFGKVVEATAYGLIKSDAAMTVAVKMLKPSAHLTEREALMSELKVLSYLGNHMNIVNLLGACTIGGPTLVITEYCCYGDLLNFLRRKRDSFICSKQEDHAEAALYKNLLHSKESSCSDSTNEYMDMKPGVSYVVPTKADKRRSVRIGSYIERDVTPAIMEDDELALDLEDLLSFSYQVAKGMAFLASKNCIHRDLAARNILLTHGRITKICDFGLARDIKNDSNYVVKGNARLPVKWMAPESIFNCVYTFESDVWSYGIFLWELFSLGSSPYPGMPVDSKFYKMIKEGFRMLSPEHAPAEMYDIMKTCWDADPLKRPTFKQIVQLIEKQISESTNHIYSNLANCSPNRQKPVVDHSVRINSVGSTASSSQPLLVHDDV
Procedure: as §1, §2

[20] = target: T20, KIT(D816H) (Homo sapiens, UniProt P10721, D816H); conditions: read-out: % control
T20 construct: purchased Eurofins
T20 sequence (P10721 26-976 D816H): as the sequence (P10721 26-976) above, with D791H counted along it
Procedure: as §1, §2

[21] = target: T21, KIT(D816V) (Homo sapiens, UniProt P10721, D816V); conditions: read-out: % control
T21 construct: purchased Eurofins
T21 sequence (P10721 26-976 D816V): as the sequence (P10721 26-976) above, with D791V counted along it
Procedure: as §1, §2

[22] = target: T22, MAP3K2 (Homo sapiens, UniProt Q9Y2U5); conditions: MAP3K2, 1 μM; read-out: % control
T22 construct: purchased Eurofins
Procedure: as §1, §2

[23] = target: T23, MAP3K3 (Homo sapiens, UniProt Q99759); conditions: MAP3K3, 1 μM; read-out: % control
T23 construct: purchased Eurofins
Procedure: as §1, §2

[24] = target: T24, MEK3 (Homo sapiens, UniProt P46734); conditions: MEK3, 1 μM; read-out: % control
T24 construct: purchased Eurofins
T24 sequence (P46734 whole entry): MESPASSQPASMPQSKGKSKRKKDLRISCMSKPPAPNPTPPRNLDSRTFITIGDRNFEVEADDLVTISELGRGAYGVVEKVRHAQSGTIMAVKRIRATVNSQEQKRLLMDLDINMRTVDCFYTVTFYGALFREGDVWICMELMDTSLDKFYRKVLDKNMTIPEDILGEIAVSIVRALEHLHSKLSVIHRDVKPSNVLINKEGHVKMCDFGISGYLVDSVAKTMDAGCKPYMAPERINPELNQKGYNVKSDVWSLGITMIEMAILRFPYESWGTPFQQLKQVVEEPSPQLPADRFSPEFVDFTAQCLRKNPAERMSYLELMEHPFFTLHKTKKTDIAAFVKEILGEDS
Procedure: as §1, §2

[25] = target: T25, MEK5 (Homo sapiens, UniProt Q13163); conditions: MEK5, 1 μM; read-out: % control
T25 construct: purchased Eurofins scanMax kinase panel
T25 sequence (Q13163 whole entry): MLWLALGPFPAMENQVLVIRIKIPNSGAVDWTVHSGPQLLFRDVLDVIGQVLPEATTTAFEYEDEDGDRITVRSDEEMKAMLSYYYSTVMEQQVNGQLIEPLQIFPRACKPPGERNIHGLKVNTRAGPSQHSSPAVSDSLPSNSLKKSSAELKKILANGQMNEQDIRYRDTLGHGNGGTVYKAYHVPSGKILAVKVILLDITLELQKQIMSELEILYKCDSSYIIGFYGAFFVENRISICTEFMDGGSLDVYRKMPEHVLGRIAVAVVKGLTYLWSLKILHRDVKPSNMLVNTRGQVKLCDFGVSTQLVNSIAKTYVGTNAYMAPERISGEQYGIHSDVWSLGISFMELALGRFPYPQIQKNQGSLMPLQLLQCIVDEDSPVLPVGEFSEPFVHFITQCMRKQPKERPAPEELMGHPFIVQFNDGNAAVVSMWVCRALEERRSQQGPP
Procedure: as §1, §2

[26] = target: T26, MEKI (Homo sapiens, UniProt Q02750); conditions: read-out: % control
T26 construct: purchased Eurofins
Procedure: as §1, §2

[27] = target: T27, PAK4 (Homo sapiens, UniProt O96013); conditions: PAK4, 1 μM; read-out: % control
T27 construct: purchased Eurofins scanMax kinase panel
T27 sequence (O96013 whole entry): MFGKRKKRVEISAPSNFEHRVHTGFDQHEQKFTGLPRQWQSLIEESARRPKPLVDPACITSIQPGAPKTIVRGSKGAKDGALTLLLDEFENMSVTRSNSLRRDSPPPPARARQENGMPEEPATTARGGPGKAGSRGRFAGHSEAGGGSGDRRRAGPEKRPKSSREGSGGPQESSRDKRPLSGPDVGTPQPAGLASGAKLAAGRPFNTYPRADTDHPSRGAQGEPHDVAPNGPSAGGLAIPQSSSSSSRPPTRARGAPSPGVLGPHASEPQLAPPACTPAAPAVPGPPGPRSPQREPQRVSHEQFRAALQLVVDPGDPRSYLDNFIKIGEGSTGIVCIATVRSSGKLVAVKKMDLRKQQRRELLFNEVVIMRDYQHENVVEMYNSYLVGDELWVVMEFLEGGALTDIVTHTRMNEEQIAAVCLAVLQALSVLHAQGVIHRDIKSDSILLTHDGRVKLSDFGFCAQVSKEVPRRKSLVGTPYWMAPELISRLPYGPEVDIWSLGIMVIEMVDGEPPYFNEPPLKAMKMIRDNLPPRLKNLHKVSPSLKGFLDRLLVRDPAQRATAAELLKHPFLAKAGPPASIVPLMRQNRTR
Procedure: as §1, §2

[28] = target: T28, PIM1 (Homo sapiens, UniProt P11309); conditions: PIM1, 1 μM; read-out: % control
T28 construct: purchased Eurofins scanMax kinase panel
T28 sequence (P11309 whole entry): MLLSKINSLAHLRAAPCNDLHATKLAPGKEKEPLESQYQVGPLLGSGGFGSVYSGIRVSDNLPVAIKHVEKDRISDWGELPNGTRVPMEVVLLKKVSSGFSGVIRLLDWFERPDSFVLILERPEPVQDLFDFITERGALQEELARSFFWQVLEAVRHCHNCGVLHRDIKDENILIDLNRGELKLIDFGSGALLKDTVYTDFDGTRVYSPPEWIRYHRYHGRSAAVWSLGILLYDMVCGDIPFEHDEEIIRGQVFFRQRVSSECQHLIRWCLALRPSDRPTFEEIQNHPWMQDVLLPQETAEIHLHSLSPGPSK
Procedure: as §1, §2

[29] = target: T29, PIM2 (Homo sapiens, UniProt Q9P1W9); conditions: PIM2, 1 μM; read-out: % control
T29 construct: purchased Eurofins scanMax kinase panel
T29 sequence (Q9P1W9 whole entry): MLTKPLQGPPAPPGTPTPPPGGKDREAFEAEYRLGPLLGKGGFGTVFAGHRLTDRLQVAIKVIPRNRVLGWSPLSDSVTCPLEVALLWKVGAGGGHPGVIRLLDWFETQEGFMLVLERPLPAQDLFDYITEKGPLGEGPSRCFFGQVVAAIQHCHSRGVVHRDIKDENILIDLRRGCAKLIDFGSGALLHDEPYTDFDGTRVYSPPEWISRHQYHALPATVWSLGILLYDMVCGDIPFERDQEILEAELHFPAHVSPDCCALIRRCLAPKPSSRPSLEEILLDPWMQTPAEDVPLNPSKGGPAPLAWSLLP
Procedure: as §1, §2

[30] = target: T30, PIM3 (Homo sapiens, UniProt Q86V86); conditions: PIM3, 1 μM; read-out: % control
T30 construct: purchased Eurofins scanMax kinase panel
Procedure: as §1, §2

[31] = target: T31, RET(V804M) (Homo sapiens, UniProt P07949, V804M); conditions: read-out: % control
T31 construct: purchased Eurofins scanMax kinase panel
Procedure: as §1, §2

[32] = target: T32, SRC (Homo sapiens, UniProt P12931); conditions: read-out: % control
T32 construct: purchased Eurofins scanMax kinase panel
Procedure: as §1, §2

[33] = target: T33, TRKC (Homo sapiens, UniProt Q16288); conditions: read-out: % control
T33 construct: purchased Eurofins scanMax kinase panel
Procedure: as §1, §2

[34] = target: T34, YES1 (Homo sapiens, UniProt P07947); conditions: YES1, 1 μM; read-out: % control
T34 construct: purchased Eurofins scanMax kinase panel
Procedure: as §1, §2

remaining binding at 1 µM [1]: < 10% | remaining binding at 1 µM [2]: < 10% | remaining binding at 1 µM [3]: < 10% | remaining binding at 1 µM [4]: < 10% | remaining binding at 1 µM [5]: < 10% | remaining binding at 1 µM [6]: < 10% | remaining binding at 1 µM [7]: < 10% | remaining binding at 1 µM [8]: < 10% | remaining binding at 1 µM [9]: < 10% | remaining binding at 1 µM [10]: < 10% | remaining binding at 1 µM [11]: < 10% | remaining binding at 1 µM [12]: < 10% | remaining binding at 1 µM [13]: < 10% | remaining binding at 1 µM [14]: < 10% | remaining binding at 1 µM [15]: < 10% | remaining binding at 1 µM [16]: < 10% | remaining binding at 1 µM [17]: < 10% | remaining binding at 1 µM [18]: < 10% | remaining binding at 1 µM [19]: < 10% | remaining binding at 1 µM [20]: < 10% | remaining binding at 1 µM [21]: < 10% | remaining binding at 1 µM [22]: < 10% | remaining binding at 1 µM [23]: < 10% | remaining binding at 1 µM [24]: < 10% | remaining binding at 1 µM [25]: < 10% | remaining binding at 1 µM [26]: < 10% | remaining binding at 1 µM [27]: < 10% | remaining binding at 1 µM [28]: < 10% | remaining binding at 1 µM [29]: < 10% | remaining binding at 1 µM [30]: < 10% | remaining binding at 1 µM [31]: < 10% | remaining binding at 1 µM [32]: < 10% | remaining binding at 1 µM [33]: < 10% | remaining binding at 1 µM [34]: < 10%
Structure (SMILES): COc1ccc2nc(-c3n[nH]c4ccc(C(=O)N[C@H]5CC[C@H](N)C5)cc34)[nH]c2c1 [Example 32, N-((1S,3S)-3-aminocyclopentyl)-3-(6-methoxy-1H-benzo[d]imidazol-2-yl)-1H-indazole-5-carboxamide]
